Reference: ChEMBL document CHEMBL1201862, “PubChem BioAssay data set” (2004)
Activity calls are given as the source filed them.

Columns and labels:
[1] = luciferase reporter signal suppression in cells – H4 neuroglioma cells, luminescence, dose response (AID 1990); format: functional, cell-based
[2] = Luminescence Cell-Based Dose Response HTS to Identify Inhibitors of 5'UTR Stem-Loop Driven Prion Protein mRNA Translation in H4 Neuroglioblastoma Cells. [Related pubchem assays: 1827 (Project Summary), 1813 (Primary HTS)]; format: functional
[3] = alpha-synuclein stem-loop luciferase translation blockers – H4 neuroglioma cells, luminescence, confirmation (AID 1988); format: functional, cell-based
CHO-K1 = assay: (§1) Counterscreen for antagonists of the orexin 1 receptor (OX1R; HCRTR1): Homogeneous time resolved fluorescence (HTRF)-based cell-based dose response assay to identify antagonists of the parental CHO-K1 cell line. [Related pubchem assays (depositor defined):AID434989, AID435008, AID463079, AID485270, AID492963, AID492964, AID492965, AID493232, AID504699, AID504701]; format: functional; settings: Cricetulus griseus
[4] = as §1, with “Fluorescence-based” for “Homogeneous time resolved fluorescence (HTRF)-based”, “cell-based high throughput” for “cell-based”, “CHO” for “CHO-K1”; format: functional
[5] = molecular target: T1, Orexin/Hypocretin receptor type 1 (Homo sapiens, UniProt O43613); assay: Homogeneous Time Resolved Fluorescence (HTRF)-based cell-based high throughput dose response assay for antagonists of the orexin 1 receptor (OX1R; HCRTR1). [Related pubchem assays (depositor defined):AID434989, AID435008, AID463079, AID485270, AID492963, AID492964, AID492965, AID493232, AID504717, AID504718]; format: functional
T1 sequence (O43613 whole entry): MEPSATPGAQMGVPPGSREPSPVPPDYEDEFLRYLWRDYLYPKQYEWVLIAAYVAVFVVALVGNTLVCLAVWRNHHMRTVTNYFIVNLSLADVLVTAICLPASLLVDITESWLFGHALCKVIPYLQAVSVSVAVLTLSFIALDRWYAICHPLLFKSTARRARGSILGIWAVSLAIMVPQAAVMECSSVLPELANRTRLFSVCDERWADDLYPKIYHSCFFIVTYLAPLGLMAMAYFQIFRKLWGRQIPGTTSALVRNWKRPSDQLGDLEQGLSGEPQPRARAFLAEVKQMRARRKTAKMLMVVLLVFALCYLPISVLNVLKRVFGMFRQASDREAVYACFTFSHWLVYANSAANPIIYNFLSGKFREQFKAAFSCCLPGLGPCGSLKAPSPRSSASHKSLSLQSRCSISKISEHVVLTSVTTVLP

[6] = molecular target: T1, Orexin/Hypocretin receptor type 1; assay: Fluorescence-based cell-based high throughput dose response assay for antagonists of the orexin 1 receptor (OX1R; HCRTR1). [Related pubchem assays (depositor defined):AID434989, AID435008, AID463079, AID485270, AID492963, AID492964, AID492965, AID493232, AID504717, AID504718]; format: functional
Orexin receptor type 2 [7] = molecular target: T2, Orexin receptor type 2 (Homo sapiens, UniProt O43614); assay: Counterscreen assay for antagonists of the orexin 1 receptor (OX1R; HCRTR1): Fluorescence-based cell-based dose response assay for antagonists of the orexin 2 receptor (OX2R; HCRTR2), run by assay provider.; format: functional
Orexin receptor type 2 [8] = molecular target: T2, Orexin receptor type 2; assay: Counterscreen assay for antagonists of the orexin 1 receptor (OX1R; HCRTR1): Homogeneous Time Resolved Fluorescence (HTRF)-based cell-based dose response assay for antagonists of the orexin 2 receptor (OX2R; HCRTR2), run by assay provider.; format: functional
[9] = molecular target: T3, Microphthalmia-associated transcription factor (Homo sapiens, UniProt O75030); assay: reducers of TRPM1 reporter luminescence, concentration series – cell-based, SK-MEL-5, cherry-picked, set 3, MITF inhibitor project, dose response (AID 493073); format: functional;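 note: SK-MEL-5 melanoma cells with luciferase driven by the MITF target TRPM1 promoter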
T3 sequence (O75030 whole entry): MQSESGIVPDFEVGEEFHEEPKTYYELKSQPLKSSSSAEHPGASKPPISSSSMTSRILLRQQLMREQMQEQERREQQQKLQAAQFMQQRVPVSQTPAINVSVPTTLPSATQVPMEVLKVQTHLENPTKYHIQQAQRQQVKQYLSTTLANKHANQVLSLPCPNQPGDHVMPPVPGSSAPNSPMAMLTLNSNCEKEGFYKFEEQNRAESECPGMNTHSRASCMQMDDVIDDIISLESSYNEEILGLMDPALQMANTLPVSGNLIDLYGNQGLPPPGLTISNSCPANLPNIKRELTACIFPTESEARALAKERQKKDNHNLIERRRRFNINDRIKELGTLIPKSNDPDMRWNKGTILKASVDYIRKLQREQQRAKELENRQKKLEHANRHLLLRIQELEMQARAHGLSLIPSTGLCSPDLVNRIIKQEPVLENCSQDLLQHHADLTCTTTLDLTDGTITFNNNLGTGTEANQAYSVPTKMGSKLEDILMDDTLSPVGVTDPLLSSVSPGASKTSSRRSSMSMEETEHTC

CHO = CHO cell viability loss, potency – luminescence, cytotoxicity control for TLR9-MyD88 binding inhibitor project, dose response (AID 588339); format: functional, cell-based, hamster; settings: Cricetulus griseus;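 note: CHO cells stably coexpressing TLR9 and MyD88 fusions from primary screen; compound exposure lasted 48 hours before viability readout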
[10] = molecular target: Heat shock protein HSP 90-alpha (Homo sapiens, UniProt P07900); format: functional, organism-based
Beta Lactamase = Beta Lactamase (Pseudomonas aeruginosa, UniProt Q932Y6); assay: BLA reporter interference, concentration series – BLA reporter cells, FRET fluorescence, artefact control for TLR9-MyD88 binding inhibitor project, dose response (AID 588341); format: cell-based;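 note: cell based assay in CHO-K1 cells stably expressing beta-lactamase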
[11] = molecular target: Latent membrane protein 1 (Human herpesvirus 4 (strain B95-8), UniProt P03230); assay: LMP1 TES1 pathway selectivity over dsRED control – imaging, HEK293T, dual-color eGFP/dsRED, cherry-picks, selectivity assay for LMP1 NF-kB inhibitor project, dose response (AID 588398); format: functional, cell-based
[12] = molecular target: T4, Delta-type opioid receptor (Homo sapiens, UniProt P41143); assay: HTS Image-Based Screen for Antagonists of the DOR Receptor. [Related pubchem assays (depositor defined):AID1777, AID1785, AID1786, AID2133]; format: functional
Mu-type opioid receptor = Mu-type opioid receptor (Homo sapiens, UniProt P35372); assay: HTS Image-Based Screen for Agonists of the MOR Receptor. [Related pubchem assays (depositor defined):AID1777, AID1785, AID1786, AID2133]; format: functional;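 note: imaging of beta-arrestin GFP recruitment into spots after receptor activation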
[13] = molecular target: T4, Delta-type opioid receptor; assay: HTS Image-Based Screen for Agonists of the DOR Receptor. [Related pubchem assays (depositor defined):AID1777, AID1786, AID2133]; format: functional
Beta-galactosidase [14] = molecular target: T5, Beta-galactosidase (Escherichia coli, UniProt Q8VNN2); assay: PubChem AID 485352; format: functional
Vero = assay: mammalian cell viability reduction – secondary assay, cytotoxicity control for West Nile virus antiviral project, dose response (AID 1650); format: functional; settings: Chlorocebus sabaeus
[15] = Luminescence-based dose response cell-based high throughput screening assay for cytotoxic compounds using the IEC-6 intestinal epithelial cell line. [Related pubchem assays: 1858 (Summary AID.), 1825 (Counterscreen.), 1907 (Confirmation screen.)]; format: functional
[16] = molecular target: T6, Type-1 angiotensin II receptor (Homo sapiens, UniProt P30556); assay: antagonism of angiotensin II type 1 receptor – cell-based, uHTS hits, selectivity assay for APJ receptor antagonist project, dose response (AID 463214); format: functional;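 note: antagonist potency against angiotensin II stimulated AT1 response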
T6 sequence (P30556 whole entry): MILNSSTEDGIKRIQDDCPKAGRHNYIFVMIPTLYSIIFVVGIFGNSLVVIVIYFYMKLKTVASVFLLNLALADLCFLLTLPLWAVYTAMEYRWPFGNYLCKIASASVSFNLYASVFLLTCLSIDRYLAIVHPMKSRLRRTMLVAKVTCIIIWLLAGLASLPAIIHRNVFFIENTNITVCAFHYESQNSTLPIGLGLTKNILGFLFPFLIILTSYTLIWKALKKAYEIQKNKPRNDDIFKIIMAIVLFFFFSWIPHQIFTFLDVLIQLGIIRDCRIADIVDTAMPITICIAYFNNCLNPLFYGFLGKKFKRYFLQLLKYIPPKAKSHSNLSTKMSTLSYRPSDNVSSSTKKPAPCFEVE

[17] = viability of PTEN-deleted HCT116 cells – cell-based, HCT116 PTEN knockout, dose response (AID 1047); format: functional;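 note: HCT116 colon tumor cells with PTEN knocked out; cells exposed to compound for 60 hours before readout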
[18] = molecular target: Kappa-type opioid receptor (Homo sapiens, UniProt P41145); format: functional
[19] = molecular target: T7, Sphingosine 1-phosphate receptor 4 (Homo sapiens, UniProt O95977); assay: Late stage fluorescence dose response cell-based screening assay for antagonists of the Sphingosine 1-Phosphate Receptor 4 (S1P4). [Related pubchem assays: 1524 (Confirmation screen (S1P4 antagonists).), 1510 (Primary screen (S1P4 antagonists).), 1853 (Summary AID (S1P4 antagonists).), 1692 (Dose response screen (S1P4 antagonists).)]; format: functional
T7 sequence (O95977 whole entry): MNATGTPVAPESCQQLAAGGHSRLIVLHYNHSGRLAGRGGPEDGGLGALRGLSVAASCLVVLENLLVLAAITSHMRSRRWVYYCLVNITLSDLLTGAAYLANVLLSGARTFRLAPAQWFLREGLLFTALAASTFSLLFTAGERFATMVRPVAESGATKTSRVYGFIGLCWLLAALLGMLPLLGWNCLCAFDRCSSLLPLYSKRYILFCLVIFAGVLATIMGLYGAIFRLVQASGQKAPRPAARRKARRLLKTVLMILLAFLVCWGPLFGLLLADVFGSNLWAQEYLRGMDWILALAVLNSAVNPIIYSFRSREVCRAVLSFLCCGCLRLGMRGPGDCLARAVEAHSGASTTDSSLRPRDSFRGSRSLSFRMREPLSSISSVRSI

Beta-galactosidase [20] = molecular target: T5, Beta-galactosidase; format: functional
[21] = viability of HCT116 lacking mutant beta-catenin – cell-based, human colon tumor, dose response (AID 1045); format: functional;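 note: HCT116 colon tumor cells with beta catenin knocked out; cells exposed to compound for 60 hours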
[22] = molecular target: T7, Sphingosine 1-phosphate receptor 4; assay: Fluorescence dose response cell-based high throughput screening assay for antagonists of the Sphingosine 1-Phosphate Receptor 4 (S1P4). [Related pubchem assays: 1524 (Confirmation in triplicates.), 1510 (Primary screen.)]; format: functional
[23] = molecular target: Sphingosine 1-phosphate receptor 1 (Homo sapiens, UniProt P21453); format: functional;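 note: Tango beta-arrestin reporter U2OS cells stimulated with S1P near its EC80; inhibitor potency meaning antagonism of receptor activation by the natural agonist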
HEK293 [24] = assay: HEK293T cell viability loss, resazurin readout – resazurin fluorescence, cytotoxicity control for NF-kB activator project, SAR follow-up (AID 493251); format: functional, cell-based; settings: Homo sapiens
Jurkat = assay: SAR Analysis of small molecule inhibitors of both B-cell and T-cell specific antigen receptor-induced NF-kB activation in a Jurkat cell line using a luminescence assay. [Related pubchem assays (depositor defined):AID435003, AID435022, AID465, AID489029]; format: functional, cell-based; settings: Homo sapiens
HEK293 [25] = assay: SAR Analysis of small molecule inhibitors of both B-cell and T-cell specific antigen receptor-induced NF-kB activation in a HEK-293T cell line using a luminescence assay. [Related pubchem assays (depositor defined):AID435003, AID435022, AID465, AID489019, AID489029]; format: functional, cell-based; settings: Homo sapiens
A-375 [26] = assay: MITF: Counter assay: A375 proliferation Measured in Cell-Based System Using Plate Reader - 2084-03_Inhibitor_Dose_DryPowder_Activity. [Related pubchem assays (depositor defined):AID488944]; format: functional; settings: Homo sapiens
A-375 [27] = assay: proliferation inhibition in MITF-low A375 cells – cell-based, cherry-pick samples, set 2, counter-screen for MITF modulator project, dose response (AID 540335); format: functional; settings: Homo sapiens

T2 sequence (O43614 whole entry): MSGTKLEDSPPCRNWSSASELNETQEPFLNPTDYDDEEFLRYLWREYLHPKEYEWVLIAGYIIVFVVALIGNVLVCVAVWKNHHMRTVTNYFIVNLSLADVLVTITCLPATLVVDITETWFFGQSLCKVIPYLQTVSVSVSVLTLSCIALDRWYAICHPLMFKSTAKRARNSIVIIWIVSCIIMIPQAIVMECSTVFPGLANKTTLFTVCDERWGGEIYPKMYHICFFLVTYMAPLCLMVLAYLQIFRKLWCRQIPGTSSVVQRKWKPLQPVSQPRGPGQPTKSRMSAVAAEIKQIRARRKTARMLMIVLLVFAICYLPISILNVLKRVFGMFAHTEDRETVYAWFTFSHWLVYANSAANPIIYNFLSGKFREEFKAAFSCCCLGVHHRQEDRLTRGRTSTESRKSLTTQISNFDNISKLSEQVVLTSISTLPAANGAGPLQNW
T4 sequence (P41143 whole entry): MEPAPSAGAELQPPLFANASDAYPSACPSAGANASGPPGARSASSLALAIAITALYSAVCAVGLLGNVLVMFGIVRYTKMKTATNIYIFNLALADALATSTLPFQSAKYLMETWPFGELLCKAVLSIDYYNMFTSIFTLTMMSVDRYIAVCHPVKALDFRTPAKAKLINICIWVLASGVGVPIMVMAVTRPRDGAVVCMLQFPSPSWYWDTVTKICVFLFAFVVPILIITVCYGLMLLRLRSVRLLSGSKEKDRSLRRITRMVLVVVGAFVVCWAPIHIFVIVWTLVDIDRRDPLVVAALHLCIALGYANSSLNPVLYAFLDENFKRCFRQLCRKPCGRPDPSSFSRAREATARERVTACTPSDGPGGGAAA
T5 sequence (Q8VNN2 whole entry): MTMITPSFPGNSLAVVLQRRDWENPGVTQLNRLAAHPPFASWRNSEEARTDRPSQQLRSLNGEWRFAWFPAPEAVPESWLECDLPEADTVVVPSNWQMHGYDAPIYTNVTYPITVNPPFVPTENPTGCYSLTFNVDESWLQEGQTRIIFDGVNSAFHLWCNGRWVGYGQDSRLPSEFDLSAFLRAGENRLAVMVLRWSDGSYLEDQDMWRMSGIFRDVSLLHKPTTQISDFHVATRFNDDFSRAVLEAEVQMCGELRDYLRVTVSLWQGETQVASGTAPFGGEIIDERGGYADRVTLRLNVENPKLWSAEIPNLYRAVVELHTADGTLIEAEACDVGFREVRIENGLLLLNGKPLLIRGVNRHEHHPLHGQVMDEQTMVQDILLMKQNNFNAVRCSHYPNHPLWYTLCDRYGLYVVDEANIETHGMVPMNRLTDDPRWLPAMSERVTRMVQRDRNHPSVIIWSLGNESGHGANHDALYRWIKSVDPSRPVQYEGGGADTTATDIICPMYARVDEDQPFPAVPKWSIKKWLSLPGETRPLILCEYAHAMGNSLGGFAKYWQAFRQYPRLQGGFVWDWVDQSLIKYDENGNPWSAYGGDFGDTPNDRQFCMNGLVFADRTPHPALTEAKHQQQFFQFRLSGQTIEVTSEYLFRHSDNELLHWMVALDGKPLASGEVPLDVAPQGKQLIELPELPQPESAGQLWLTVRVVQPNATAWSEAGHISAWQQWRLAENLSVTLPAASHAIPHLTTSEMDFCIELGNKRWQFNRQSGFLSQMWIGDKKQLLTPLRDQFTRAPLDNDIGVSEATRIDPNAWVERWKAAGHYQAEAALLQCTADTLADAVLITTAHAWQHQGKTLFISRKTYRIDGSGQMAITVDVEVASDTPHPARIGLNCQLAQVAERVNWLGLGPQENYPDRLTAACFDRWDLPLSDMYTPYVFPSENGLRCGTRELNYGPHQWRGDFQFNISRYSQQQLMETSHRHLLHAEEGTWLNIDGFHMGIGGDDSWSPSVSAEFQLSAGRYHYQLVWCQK
Mu-type opioid receptor, sequence (P35372 whole entry): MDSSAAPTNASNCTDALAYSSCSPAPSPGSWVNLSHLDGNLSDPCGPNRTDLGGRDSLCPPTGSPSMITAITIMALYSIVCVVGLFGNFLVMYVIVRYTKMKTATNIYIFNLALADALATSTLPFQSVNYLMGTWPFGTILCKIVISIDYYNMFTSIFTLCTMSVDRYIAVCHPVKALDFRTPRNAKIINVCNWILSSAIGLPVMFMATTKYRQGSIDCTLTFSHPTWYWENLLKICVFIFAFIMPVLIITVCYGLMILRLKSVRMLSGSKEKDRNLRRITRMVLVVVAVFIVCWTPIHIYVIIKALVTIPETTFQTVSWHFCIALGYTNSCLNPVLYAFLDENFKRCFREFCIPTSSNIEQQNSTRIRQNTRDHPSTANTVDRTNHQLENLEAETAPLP
Beta Lactamase, sequence (Q932Y6 whole entry): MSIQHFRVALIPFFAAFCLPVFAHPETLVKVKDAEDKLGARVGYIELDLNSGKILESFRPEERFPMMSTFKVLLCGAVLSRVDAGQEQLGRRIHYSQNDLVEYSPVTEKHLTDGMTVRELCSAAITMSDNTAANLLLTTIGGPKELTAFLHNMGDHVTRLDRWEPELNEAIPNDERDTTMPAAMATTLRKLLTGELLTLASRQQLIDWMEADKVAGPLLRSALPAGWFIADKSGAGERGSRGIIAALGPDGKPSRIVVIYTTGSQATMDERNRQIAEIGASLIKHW
Sphingosine 1-phosphate receptor 1, sequence (P21453 whole entry): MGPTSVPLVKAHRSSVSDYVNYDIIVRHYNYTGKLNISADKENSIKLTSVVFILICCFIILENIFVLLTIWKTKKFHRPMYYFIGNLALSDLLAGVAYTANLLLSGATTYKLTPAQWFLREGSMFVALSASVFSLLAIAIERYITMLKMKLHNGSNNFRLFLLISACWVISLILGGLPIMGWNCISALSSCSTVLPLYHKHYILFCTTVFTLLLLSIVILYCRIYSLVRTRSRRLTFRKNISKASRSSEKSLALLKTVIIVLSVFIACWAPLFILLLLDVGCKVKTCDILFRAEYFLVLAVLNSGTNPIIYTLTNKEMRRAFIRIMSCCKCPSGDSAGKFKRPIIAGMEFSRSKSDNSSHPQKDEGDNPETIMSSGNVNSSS
Kappa-type opioid receptor, sequence (P41145 whole entry): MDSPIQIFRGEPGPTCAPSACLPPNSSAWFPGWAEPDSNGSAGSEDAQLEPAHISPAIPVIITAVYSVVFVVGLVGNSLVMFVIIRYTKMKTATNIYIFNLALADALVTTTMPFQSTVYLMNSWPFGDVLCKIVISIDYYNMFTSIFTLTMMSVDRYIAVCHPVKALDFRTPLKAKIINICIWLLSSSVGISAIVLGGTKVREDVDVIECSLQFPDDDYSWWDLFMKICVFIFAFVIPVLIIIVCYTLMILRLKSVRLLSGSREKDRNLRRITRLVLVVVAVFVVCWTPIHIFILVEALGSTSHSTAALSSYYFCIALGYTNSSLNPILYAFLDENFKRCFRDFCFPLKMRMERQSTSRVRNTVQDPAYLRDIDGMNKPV
Latent membrane protein 1, sequence (P03230 whole entry): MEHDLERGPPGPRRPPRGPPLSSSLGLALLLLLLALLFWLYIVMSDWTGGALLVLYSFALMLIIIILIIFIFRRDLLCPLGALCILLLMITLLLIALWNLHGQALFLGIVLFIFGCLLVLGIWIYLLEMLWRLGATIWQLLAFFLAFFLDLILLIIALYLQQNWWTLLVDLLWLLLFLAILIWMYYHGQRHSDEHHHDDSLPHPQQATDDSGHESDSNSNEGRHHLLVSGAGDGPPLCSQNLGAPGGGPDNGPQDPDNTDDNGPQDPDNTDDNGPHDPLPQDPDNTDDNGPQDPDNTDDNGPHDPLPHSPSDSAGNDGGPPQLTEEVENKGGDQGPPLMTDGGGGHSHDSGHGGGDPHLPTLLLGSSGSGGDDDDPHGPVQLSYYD

CN1C(=O)C2(N=c3ccccc3=N2)c2ccccc21
inactive: IC50 (CHO-K1) > 66.2 µM | IC50 [4] > 49.7 µM | IC50 [6] 13.8 µM | IC50 (Orexin receptor type 2 [7]) > 88.8 µM | IC50 (Orexin receptor type 2 [8]) > 50 µM
active: EC50 [1] 79.5 µM | IC50 [5] 3.22 µM
> 120 µM (not active): EC50 [2] | EC50 [3]

O=C(c1ccccc1)c1cc(Cl)ccc1N1C(=O)C=CC1=O
inactive: IC50 (Beta Lactamase) 14.7 µM
active: AC50 [9] 11.9 µM | IC50 (CHO) 2.26 µM | AC50 [10] 0.552 µM

OCCN(CCO)CC(O)COCCC12CC3CC(CC(C3)C1)C2 (configuration not stated)
active: AC50 [11] 77.6 µM

Cc1ccc(S(=O)(=O)Nc2cccc3cccnc23)cc1
active: EC50 [1] 13.7 µM | EC50 [2] 15.2 µM | CC50 (Vero) 6.89 µM | EC50 [3] 11.5 µM | IC50 [15] 1.84 µM | IC50 [16] 3.67 µM | EC50 [17] 2.84 µM | IC50 [18] 2.57 µM | IC50 [19] 0.55 µM | EC50 [21] 2.5 µM | IC50 [22] 0.63 µM | IC50 [23] 1.42 µM | AC50 [9] 5.55 µM | IC50 (Jurkat) 1.06 µM | IC50 (HEK293 [25]) 18.1 µM | AC50 (A-375 [26]) > 35 µM | AC50 (A-375 [27]) > 35 µM
inactive: IC50 [12] > 32 µM | EC50 (Mu-type opioid receptor) > 32 µM | EC50 [13] > 32 µM | EC50 (Beta-galactosidase [14]) > 40 µM | EC50 (Beta-galactosidase [20]) > 31.5 µM | IC50 (HEK293 [24]) 56.8 µM
